Results reported in ChEMBL document CHEMBL4840300 (J Nat Prod, 2021).

Assays:
HaCaT [1] = assay: Effect on cell cycle distribution in human HaCaT cells assessed as >4N cells at 10 uMpretreated for 6 hrs followed by H2O2 challenge for 24 hrs by propidium iodide staining based flow cytometry analysis (Rvb= 11.1%); type: functional; conditions: dose 10 µM; time 30 hrs
HaCaT [2] = assay: Anti-pyroptosis activity in human HaCaT cells assessed as reduction in H2O2-induced LDH production at 1 uM incubated for 6 hrs followed by H2O2 stimulation measured after 24 hrs by LDH assay relative to control; type: functional; parameters: scale not given: the % may be the effect or the level left; conditions: time 30 hrs
HaCaT [3] = assay: Cytoprotective activity against H2O2-induced oxidative stress in human HaCaT cells assessed as change in cellular ROS level at 1 uM incubated for 6 hrs followed by H2O2 stimulation measured after 24 hrs by DCF-DA dye based fluorescence analysis (reference value: 8.2); type: functional; conditions: time 30 hrs
HaCaT [4] = assay: Antioxidant activity in human HaCaT cells assessed as reduction in mean fluorescence intensity at 10 uM preincubated for 6 hrs followed by H2O2 stimulation at 200 uM measured after 24 hrs by cellROS staining based flow cytometry analysis; type: functional; conditions: time 30 hrs
HaCaT [5] = assay: Antioxidant activity in human HaCaT cells assessed as reduction in mean fluorescence intensity at 10 uM preincubated for 6 hrs followed by H2O2 stimulation at 400 uM measured after 24 hrs by cellROS staining based flow cytometry analysis; type: functional; conditions: time 30 hrs
[6] = Cytotoxicity against human HaCaT cells assessed as cell viability at 1 to 10 uM incubated for 24 hrs followed by H2O2 stimulation by celltiter-glo assay relative to control; type: cell-based; conditions: dose 1-10 µM, read-out: Activity
HaCaT [7] = assay: Antioxidant activity in human HaCaT cells assessed as reduction in mitochondria-derived ROS production by measuring mean fluorescence intensity at 10 uM preincubated for 6 hrs followed by H2O2 stimulation at 400 uM measured after 24 hrs by mitoSOX staining based flow cytometry analysis; type: functional; conditions: time 30 hrs
Caspase-1 [8] = biological target: T1, Caspase-1 (Homo sapiens, UniProt P29466); assay: Binding affinity to recombinant human caspase-1 assessed as dissociation constant at equilibrium measured after 30 sec by SPR method
T1 sequence (P29466 whole entry): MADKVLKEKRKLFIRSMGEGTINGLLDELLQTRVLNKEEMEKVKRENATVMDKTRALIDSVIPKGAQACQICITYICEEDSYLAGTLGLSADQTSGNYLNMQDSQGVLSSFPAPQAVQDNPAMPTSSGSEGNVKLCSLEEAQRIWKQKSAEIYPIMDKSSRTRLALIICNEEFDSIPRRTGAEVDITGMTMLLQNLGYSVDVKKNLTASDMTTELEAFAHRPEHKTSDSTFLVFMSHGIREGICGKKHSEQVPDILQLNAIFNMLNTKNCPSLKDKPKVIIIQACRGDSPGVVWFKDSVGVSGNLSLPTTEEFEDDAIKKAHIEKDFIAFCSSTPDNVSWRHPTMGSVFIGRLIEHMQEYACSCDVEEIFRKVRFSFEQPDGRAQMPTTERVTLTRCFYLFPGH

HaCaT [9] = assay: Anti-pyroptosis activity in human HaCaT cells assessed as reduction in H2O2-induced LDH production at 10 uM incubated for 6 hrs followed by H2O2 stimulation measured after 24 hrs by LDH assay relative to control; type: functional; parameters: scale not given: the % may be the effect or the level left; conditions: time 30 hrs
[10] = Downregulation of caspase-1 mRNA expression in H2O2- stimulated human HaCaT cells at 10 uM incubated for 6 hrs by SPE based fluorescence amplification assay relative to control; type: functional; conditions: time 30 hrs
HaCaT [11] = assay: Cytoprotective activity against H2O2-induced oxidative stress in human HaCaT cells assessed as change in cellular ROS level at 10 uM incubated for 6 hrs followed by H2O2 stimulation measured after 24 hrs by DCF-DA dye based fluorescence analysis (reference value: 8.2); type: functional; conditions: time 30 hrs
Caspase-1 (Homo sapiens) [12] = biological target: T2, Caspase-1 (Homo sapiens) (UniProt P29466); assay: Inhibition of caspase-1 activity in H2O2-stimulated human HaCaT cells assessed as reduction in enzyme activity at 10 uM using […] as a substrate measured after 2 hrs by colorimetric assay relative to control
T2 sequence (whole entry): T1 sequence (P29466 whole entry)

HaCaT [13] = assay: Effect on cell cycle distribution in human HaCaT cells assessed as 2N cells at 10 uM pretreated for 6 hrs followed by H2O2 challenge for 24 hrs by propidium iodide staining based flow cytometry analysis (Rvb= 17.9%); type: functional; conditions: time 30 hrs
[14] = Downregulation of IL-1beta mRNA expression in H2O2- stimulated human HaCaT cells at 10 uM incubated for 6 hrs by SPE based fluorescence amplification assay relative to control; type: functional; conditions: time 30 hrs
HaCaT [15] = assay: Antioxidant activity in human HaCaT cells assessed as reduction in mean fluorescence intensity at 10 uM preincubated for 6 hrs followed by H2O2 stimulation at 600 uM measured after 24 hrs by cellROS staining based flow cytometry analysis; type: functional; conditions: time 30 hrs
HaCaT [16] = assay: Antioxidant activity in human HaCaT cells assessed as reduction in mitochondria-derived ROS production by measuring mean fluorescence intensity at 10 uM preincubated for 6 hrs followed by H2O2 stimulation at 200 uM measured after 24 hrs by mitoSOX staining based flow cytometry analysis; type: functional; conditions: time 30 hrs
HaCaT [17] = assay: Effect on cell cycle distribution in human HaCaT cells assessed as accumulation of cells in G2-M phase at 10 uM pretreated for 6 hrs followed by H2O2 challenge for 24 hrs by propidium iodide staining based flow cytometry analysis relative to control; type: functional; conditions: time 30 hrs
Caspase-1 [18] = biological target: T1, Caspase-1; assay: Binding affinity to recombinant human caspase-1 assessed as dissociation constant measured after 90 sec by SPR method
HaCaT [19] = assay: Cytoprotective activity against H2O2-induced oxidative stress in human HaCaT cells assessed as increase in cell viability at 10 uM incubated for 24 hrs followed by H2O2 stimulation by celltiter-glo assay relative to control; type: functional
HaCaT [20] = assay: Effect on cell cycle distribution in human HaCaT cells assessed as <2N cells at 10 uM pretreated for 6 hrs followed by H2O2 challenge for 24 hrs by propidium iodide staining based flow cytometry analysis (Rvb= 1.88%); type: functional; conditions: time 30 hrs
HaCaT [21] = assay: Antioxidant activity in human HaCaT cells assessed as reduction in mitochondria-derived ROS production by measuring mean fluorescence intensity at 10 uM preincubated for 6 hrs followed by H2O2 stimulation at 600 uM measured after 24 hrs by mitoSOX staining based flow cytometry analysis; type: functional; conditions: time 30 hrs
[22] = Inhibition of IL-1beta expression in H2O2- stimulated human HaCaT cells at 10 uM incubated for 6 hrs followed by H2O2 stimulation measured after 24 hrs by ELISA relative to control; type: functional; conditions: time 30 hrs
HaCaT [23] = assay: Antiapoptotic activity in human HaCaT cells assessed as reduction in apoptotic cells at 10 uM incubated for 6 hrs followed by H2O2 stimulation measured after 24 hrs by Mitotracker red/annexin V double staining based flow cytometry analysis (Rvb= 12.1%); type: functional; parameters: scale not given: the % may be the effect or the level left; conditions: time 30 hrs
Caspase-1 (Homo sapiens) [24] = biological target: T2, Caspase-1 (Homo sapiens); assay: Binding affinity to recombinant human caspase-1 assessed as association constant measured after 60 sec by SPR method
HaCaT [25] = assay: Effect on cell cycle distribution in human HaCaT cells assessed as 4N cells at 10 uM pretreated for 6 hrs followed by H2O2 challenge for 24 hrs by propidium iodide staining based flow cytometry analysis (Rvb= 41.0%); type: functional; conditions: time 30 hrs

In the case of `C=C(C)[C@@H]1CCC(C)=C[C@H]1c1c(O)cc(CCCCC)cc1O` [CANNABIDIOL], the Activity (HaCaT [1]) is reported as 4.55%, the Activity (HaCaT [2]) is reported as 20.7% and the “fold change (FC)” value (HaCaT [3]) is reported as 3.96. For the same compound, the Flu intensity (HaCaT [4]) was 110, the Flu intensity (HaCaT [5]) was 96 and the viability at 24 h, up to 10 µM [6] was over 90%. It also gave a Flu intensity (HaCaT [7]) of 78, a Kd (Caspase-1 [8]) of 0.078 s⁻¹ and an Activity (HaCaT [9]) of 23.6%. For the same compound, the Activity [10] was 32.9%, the “fold change (FC)” value (HaCaT [11]) was 5.13 and the inhibition (Caspase-1 (Homo sapiens) [12]) was 15.7%. It also gave an Activity (HaCaT [13]) of 20.5%, an Activity [14] of 50.9% and a Flu intensity (HaCaT [15]) of 171. The Flu intensity (HaCaT [16]) was 75, the Activity (HaCaT [17]) was 16.7% and the Kd (Caspase-1 [18]) was 18.8 nM. It also gave an Activity (HaCaT [19]) of 48.6%, an Activity (HaCaT [20]) of 1.81% and a Flu intensity (HaCaT [21]) of 73. It also gave an inhibition at 10 µM [22] of 16.2%, an Activity (HaCaT [23]) of 6.36% and a Ka (Caspase-1 (Homo sapiens) [24]) of 416 M⁻¹ s⁻¹. The Activity (HaCaT [25]) was 45.9%.
